Data as given in ChEMBL document CHEMBL1201862, “PubChem BioAssay data set” (2004).
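Briefly, cells in 96-well plates were exposed to five compound concentrations for 48 h, and endpoints were estimated by linear interpolation. Abbreviation: GI50, concentration required for 50% inhibition of growth.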 Calls of active or inactive are those of the source. No stated cut-off is given here; in the data, active = GI50 up to about 1.1 µM and inactive = higher.

Tests used:
Assay in all cases: inhibition of tumour cell growth, NCI panel, 48 h
[1] = tested on: HL-60
[2] = tested on: K562
[3] = tested on: SW-620
[4] = tested on: UO-31
[5] = tested on: SK-MEL-28
[6] = tested on: OVCAR-5
[7] = tested on: 786-0
[8] = tested on: T47D
[9] = tested on: U-251
[10] = tested on: NCI-H226
[11] = tested on: UACC-62
[12] = tested on: SR
[13] = tested on: DU-145
[14] = tested on: RPMI-8226
[15] = tested on: HOP-62
[16] = tested on: TK-10
[17] = tested on: MCF7
[18] = tested on: OVCAR-8
[19] = tested on: A498
[20] = tested on: CAKI-1
[21] = tested on: LOX IMVI
[22] = tested on: SNB-19
[23] = tested on: PC-3
[24] = tested on: SF-295
[25] = tested on: HOP-92
[26] = tested on: MDA-N
[27] = tested on: Malme-3M
[28] = tested on: UACC-257
[29] = tested on: MDA-MB-231
[30] = tested on: OVCAR-3
[31] = tested on: ACHN
[32] = tested on: CCRF-CEM
[33] = tested on: Hs-578T
[34] = tested on: SN12C
[35] = tested on: EKVX
[36] = tested on: HT-29
[37] = tested on: MDA-MB-435
[38] = tested on: HCT-116
[39] = tested on: NCI-H23
[40] = tested on: NCI-H460
[41] = tested on: MOLT-4
[42] = tested on: SF-268
[43] = tested on: SK-OV-3
[44] = tested on: NCI/ADR-RES
[45] = tested on: RXF 393
[46] = tested on: KM12
[47] = tested on: HCC 2998
[48] = tested on: HCT-15
[49] = tested on: SK-MEL-5
[50] = tested on: COLO 205
[51] = tested on: M14
[52] = tested on: A549
[53] = tested on: SNB-75
[54] = tested on: SF-539
[55] = tested on: SK-MEL-2
[56] = tested on: OVCAR-4
[57] = tested on: IGROV-1
[58] = tested on: NCI-H522
[59] = tested on: BT-549

## C/C(=N\O)C1CC2C=C(C#N)C1N(Cc1ccccc1)C2 (stereo unspecified)
[1]
  GI50: > 100 µM (inactive)
[2]
  GI50: > 100 µM (inactive)
[3]
  GI50: > 100 µM (inactive)
[4]
  GI50: > 100 µM (inactive)
[5]
  GI50: > 100 µM (inactive)
[6]
  GI50: > 100 µM (inactive)
[7]
  GI50: > 100 µM (inactive)
[8]
  GI50: > 100 µM (inactive)
[9]
  GI50: 46.3 µM (inactive)
[10]
  GI50: > 100 µM (inactive)
[11]
  GI50: > 100 µM (inactive)
[12]
  GI50: > 100 µM (inactive)
[13]
  GI50: > 100 µM (inactive)
[14]
  GI50: > 100 µM (inactive)
[15]
  GI50: > 100 µM (inactive)
[16]
  GI50: > 100 µM (inactive)
[17]
  GI50: > 100 µM (inactive)
[18]
  GI50: 45.3 µM (inactive)
[19]
  GI50: > 100 µM (inactive)
[20]
  GI50: > 100 µM (inactive)
[21]
  GI50: > 100 µM (inactive)
[22]
  GI50: > 100 µM (inactive)
[23]
  GI50: > 100 µM (inactive)
[24]
  GI50: > 100 µM (inactive)
[25]
  GI50: > 100 µM (inactive)
[26]
  GI50: > 100 µM (inactive)
[27]
  GI50: > 100 µM (inactive)
[28]
  GI50: > 100 µM (inactive)
[29]
  GI50: > 100 µM (inactive)
[30]
  GI50: > 100 µM (inactive)
[31]
  GI50: 93.8 µM (inactive)
[32]
  GI50: > 100 µM (inactive)
[33]
  GI50: > 100 µM (inactive)
[34]
  GI50: > 100 µM (inactive)
[35]
  GI50: > 100 µM (inactive)
[36]
  GI50: > 100 µM (inactive)
[37]
  GI50: > 100 µM (inactive)
[38]
  GI50: > 100 µM (inactive)
[39]
  GI50: > 100 µM (inactive)
[40]
  GI50: 74.5 µM (inactive)
[41]
  GI50: > 100 µM (inactive)
[42]
  GI50: > 100 µM (inactive)
[43]
  GI50: > 100 µM (inactive)
[44]
  GI50: > 100 µM (inactive)
[45]
  GI50: > 100 µM (inactive)
[46]
  GI50: > 100 µM (inactive)
[47]
  GI50: 80.5 µM (inactive)
[48]
  GI50: > 100 µM
[49]
  GI50: > 100 µM (inactive)
[50]
  GI50: > 100 µM (inactive)
[51]
  GI50: > 100 µM (inactive)
[52]
  GI50: > 100 µM (inactive)
[53]
  GI50: > 100 µM (inactive)
[54]
  GI50: > 100 µM (inactive)

## CN(C)/N=C1\CC(c2ccccc2)C(C#N)(C#N)C1(C#N)C#N (stereo unspecified)
[1]
  GI50: 2.5 µM (inactive)
[2]
  GI50: 3.2 µM (inactive)
[3]
  GI50: 6.61 µM (inactive)
[4]
  GI50: 18.6 µM (inactive)
[5]
  GI50: 19.2 µM (inactive)
[6]
  GI50: 25.6 µM (inactive)
[7]
  GI50: 17.7 µM (inactive)
[8]
  GI50: 21 µM (inactive)
[55]
  GI50: 21 µM (inactive)
[9]
  GI50: 35.3 µM (inactive)
[10]
  GI50: 23.8 µM (inactive)
[11]
  GI50: 16 µM (inactive)
[12]
  GI50: 18.5 µM (inactive)
[13]
  GI50: 21 µM (inactive)
[56]
  GI50: 33.2 µM (inactive)
[57]
  GI50: 21.4 µM (inactive)
[14]
  GI50: 11.8 µM (inactive)
[15]
  GI50: 24.4 µM (inactive)
[16]
  GI50: 17.5 µM (inactive)
[17]
  GI50: 29.9 µM (inactive)
[18]
  GI50: 21.1 µM (inactive)
[19]
  GI50: 18.2 µM (inactive)
[20]
  GI50: 8.63 µM (inactive)
[21]
  GI50: 27.5 µM (inactive)
[22]
  GI50: 24.5 µM (inactive)
[23]
  GI50: 19 µM (inactive)
[24]
  GI50: 23.7 µM (inactive)
[25]
  GI50: 14.8 µM (inactive)
[26]
  GI50: 20.8 µM (inactive)
[27]
  GI50: 16.9 µM (inactive)
[28]
  GI50: 18.6 µM (inactive)
[29]
  GI50: 21.7 µM (inactive)
[31]
  GI50: 18.9 µM (inactive)
[32]
  GI50: 6.14 µM (inactive)
[33]
  GI50: 29.7 µM (inactive)
[58]
  GI50: 12.2 µM (inactive)
[34]
  GI50: 20.8 µM (inactive)
[35]
  GI50: 41.6 µM (inactive)
[36]
  GI50: 26.1 µM (inactive)
[37]
  GI50: 27.6 µM (inactive)
[38]
  GI50: 17.8 µM (inactive)
[39]
  GI50: 24.1 µM (inactive)
[41]
  GI50: 4.53 µM (inactive)
[42]
  GI50: 20.1 µM (inactive)
[43]
  GI50: 50.1 µM (inactive)
[44]
  GI50: 26.8 µM (inactive)
[45]
  GI50: 26.5 µM (inactive)
[46]
  GI50: 49.3 µM (inactive)
[47]
  GI50: 18.7 µM (inactive)
[48]
  GI50: 15.4 µM
[49]
  GI50: 11.6 µM (inactive)
[50]
  GI50: 5.56 µM (inactive)
[51]
  GI50: 17.4 µM (inactive)
[52]
  GI50: 36.4 µM (inactive)
[53]
  GI50: 15.7 µM (inactive)
[54]
  GI50: 41.4 µM (inactive)

## O=c1oc2ccc3ccccc3c2cc1-c1nnc(-c2ccc([N+](=O)[O-])cc2)[nH]1
[1]
  GI50: > 100 µM (inactive)
[2]
  GI50: > 100 µM (inactive)
[3]
  GI50: > 100 µM (inactive)
[4]
  GI50: 53.1 µM (inactive)
[5]
  GI50: > 100 µM (inactive)
[6]
  GI50: > 100 µM (inactive)
[7]
  GI50: 41.1 µM (inactive)
[55]
  GI50: 44.6 µM (inactive)
[9]
  GI50: 29.6 µM (inactive)
[11]
  GI50: > 100 µM (inactive)
[12]
  GI50: > 100 µM (inactive)
[59]
  GI50: 21.3 µM (inactive)
[13]
  GI50: 87.3 µM (inactive)
[56]
  GI50: > 100 µM (inactive)
[57]
  GI50: 0.184 µM (active)
[14]
  GI50: > 100 µM (inactive)
[15]
  GI50: 17.2 µM (inactive)
[17]
  GI50: > 100 µM (inactive)
[18]
  GI50: 21.4 µM (inactive)
[19]
  GI50: 53.6 µM (inactive)
[20]
  GI50: > 100 µM (inactive)
[21]
  GI50: 38.8 µM (inactive)
[22]
  GI50: 32.8 µM (inactive)
[23]
  GI50: > 100 µM (inactive)
[24]
  GI50: 36.6 µM (inactive)
[26]
  GI50: > 100 µM (inactive)
[27]
  GI50: 91.2 µM (inactive)
[28]
  GI50: > 100 µM (inactive)
[30]
  GI50: > 100 µM (inactive)
[31]
  GI50: 42.2 µM (inactive)
[32]
  GI50: > 100 µM (inactive)
[33]
  GI50: 11.5 µM (inactive)
[58]
  GI50: 92 µM (inactive)
[35]
  GI50: 20.7 µM (inactive)
[36]
  GI50: > 100 µM (inactive)
[37]
  GI50: > 100 µM (inactive)
[38]
  GI50: > 100 µM (inactive)
[39]
  GI50: 17.7 µM (inactive)
[40]
  GI50: > 100 µM (inactive)
[41]
  GI50: 71.4 µM (inactive)
[42]
  GI50: 0.0807 µM (active)
[43]
  GI50: 23.6 µM (inactive)
[44]
  GI50: > 100 µM (inactive)
[46]
  GI50: > 100 µM (inactive)
[47]
  GI50: > 100 µM (inactive)
[48]
  GI50: > 100 µM
[49]
  GI50: > 100 µM (inactive)
[50]
  GI50: > 100 µM (inactive)
[51]
  GI50: > 100 µM (inactive)
[52]
  GI50: > 100 µM (inactive)
[54]
  GI50: 18.7 µM (inactive)

## CC(C(=O)O)c1ccc(-c2ccccc2)c(F)c1 (stereo unspecified) [TARENFLURBIL]
[1]
  GI50: > 100 µM (inactive)
[4]
  GI50: > 100 µM (inactive)
[5]
  GI50: > 100 µM (inactive)
[55]
  GI50: > 100 µM (inactive)
[10]
  GI50: > 100 µM (inactive)
[59]
  GI50: > 100 µM (inactive)
[15]
  GI50: > 100 µM (inactive)
[17]
  GI50: > 100 µM (inactive)
[26]
  GI50: > 100 µM (inactive)
[27]
  GI50: > 100 µM (inactive)
[33]
  GI50: > 100 µM (inactive)
[58]
  GI50: > 100 µM (inactive)
[34]
  GI50: > 100 µM (inactive)
[35]
  GI50: > 100 µM (inactive)
[37]
  GI50: > 100 µM (inactive)
[42]
  GI50: > 100 µM (inactive)
[48]
  GI50: > 100 µM
[52]
  GI50: > 100 µM (inactive)
[53]
  GI50: > 100 µM (inactive)
[54]
  GI50: > 100 µM (inactive)
